Test results from patent US20240384250A1, “FIBROBLAST GROWTH FACTOR 23 MODULATING COMPOUNDS” (THE UAB RESEARCH FOUNDATION, priority 2021, published 2024).
“Also recorded” adds a separate entry of the source.

Assays:
[1] = target: T1, FGF7 binding to FGFR1c (Homo sapiens, UniProt P11362); experiment: Plate-based binding of paracrine FGF to Fc-FGFR1c with heparin and/or sKL; conditions: 0.4 USP heparin
T1 construct: a chimeric protein consisting of the FGFR1 ectodomain and the Fc region of a human IgG; purchased R&D Systems 251-KG/CF; 658FR050
Method: (§1) Proteins were coated on 96-well plates (MaxiSorp; 439454, Thermo Fisher Scientific), and proteins were added to wells in 100 μl of enzyme-linked immunosorbent assay (ELISA) coating buffer (E107, Bethyl Laboratories) with a lid placed overtop and incubated at 4° C. overnight. Plates were washed 5× with 350 μl of assay buffer (50 mM Tris [pH 7.4], 200 mM NaCl, 0.01% Tween 20) on a 50 TS microplate washer (BioTek). Plates were blocked for 1 hour in 200 μl of assay buffer with 0.5% BSA. Plates were washed as before, and proteins were incubated on plates in 100 μl of assay buffer with 0.5% BSA. Proteins or heparin was incubated in orders described in the respective figure legends. Assays using FLAG-tag-based detection were incubated with anti-FLAG coupled to HRP at 1:20,000, and assays using Fc detection were incubated with anti-human Fc coupled to HRP at 1:10,000. Plates were washed as above, and 100 μl of 3,3′,5,5′-tetramethylbenzidine (TMB) substrate (E102, Bethyl Laboratories) was added for 15 to 20 minutes until positive wells developed a dark blue color. Reactions were stopped with ELISA stop solution (E115, Bethyl Laboratories) and analyzed using the Synergy HI plate reader (BioTek) at 450 nm wavelength. […] As a control to remove background absorbance values, wells were coated with an equal amount of BSA to match the amount of protein coated in experimental wells and treated the same as experimental wells. To study the effects of sKL on the binding between paracrine FGFs and FGFRs, plates were run as above except coated with paracrine FGFs. Fc-FGFR1 was preincubated with sKL or vehicle for 60 minutes, and then the combination was added to wells and the assay was run as before.

[2] = target: T2, FGF5 binding to FGFR1c (Homo sapiens, UniProt P11362); experiment: as above; conditions: 0.4 USP heparin
T2 construct: a chimeric protein consisting of the FGFR1 ectodomain and the Fc region of a human IgG; purchased R&D Systems 237-F5/CF; 658FR050
Method: as §1

[3] = target: T3, FGF2 binding to FGFR1c (Homo sapiens, UniProt P11362); experiment: as above; conditions: 0.4 USP heparin before incubation with FGFR1c
T3 construct: a chimeric protein consisting of the FGFR1 ectodomain and the Fc region of a human IgG; purchased R&D Systems 233-FB/CF; 658FR050
T3 sequence (P11362 22-376 limits assumed): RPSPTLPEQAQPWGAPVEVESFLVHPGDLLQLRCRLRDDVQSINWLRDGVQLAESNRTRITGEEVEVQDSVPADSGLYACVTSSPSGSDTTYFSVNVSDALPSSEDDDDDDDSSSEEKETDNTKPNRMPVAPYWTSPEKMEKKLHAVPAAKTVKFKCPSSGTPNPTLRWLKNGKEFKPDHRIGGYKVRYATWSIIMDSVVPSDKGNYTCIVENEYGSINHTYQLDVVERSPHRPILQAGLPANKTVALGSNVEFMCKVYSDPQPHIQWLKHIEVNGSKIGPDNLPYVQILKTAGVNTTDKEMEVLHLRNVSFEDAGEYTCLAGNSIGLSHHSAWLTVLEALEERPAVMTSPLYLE
Method: as §1

[4] = system: FGF19 binding to FGFR isoforms 1c, 2c, 3c, 4; experiment: Pull-down and plate binding of FGF19 to FGFR isoforms with sKL or heparin; parameters: species or system human
Method: To study the interaction between Fc-tagged FGFR isoforms (Fc-FGFR), FGF isoforms, and sKL, immunoprecipitation studies were conducted. Protein A beads (6501, BioVision) and protein G beads (6511, BioVision) were used at 25 μl of a 50% stock slurry per sample in a total bead volume of 50 μl. Beads were washed 5× in activity buffer (50 mM Tris [pH 7.4], 200 mM NaCl, 0.01% Tween 20). Bead spin-down assays were all performed for 2 minutes at 5000 g. Beads were resuspended in 1 ml of activity buffer in a 1.5-ml snap cap tube. One microgram of Fc-FGFR1 to 4 was incubated with the beads for 1 hour on a bead rotator. Control samples were incubated with 2 μg of anti-FGF antibody instead of Fc-FGFR. […] Samples were analyzed using SDS-PAGE and Western blotting.
Proteins were coated on 96-well plates (MaxiSorp; 439454, Thermo Fisher Scientific), and proteins were added to wells in 100 μl of enzyme-linked immunosorbent assay (ELISA) coating buffer (E107, Bethyl Laboratories) with a lid placed overtop and incubated at 4° C. overnight. […] Reactions were stopped with ELISA stop solution (E115, Bethyl Laboratories) and analyzed using the Synergy HI plate reader (BioTek) at 450 nm wavelength. […] As a control to remove background absorbance values, wells were coated with an equal amount of BSA to match the amount of protein coated in experimental wells and treated the same as experimental wells. […]

Chain of FGF19 binding to FGFR isoforms 1c, 2c, 3c, 4 (O95750 25-216): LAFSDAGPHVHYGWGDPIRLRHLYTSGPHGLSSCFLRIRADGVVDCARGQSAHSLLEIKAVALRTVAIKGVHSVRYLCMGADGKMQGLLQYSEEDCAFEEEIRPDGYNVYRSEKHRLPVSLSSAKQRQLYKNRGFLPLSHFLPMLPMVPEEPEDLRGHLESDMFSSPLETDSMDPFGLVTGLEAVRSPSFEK

FGF7 binding to FGFR1c with heparin [1]: did not induce binding
FGF2 binding to FGFR1c with heparin [3]: increased the binding of FGF2
binding of FGF19 to any of the FGFR isoforms [4]: does not mediate binding
Substance: heparin [reference compound]
FGF5 binding to FGFR1c with heparin [2]: increased the binding of FGF2 and FGFS to FGFR1c
FGF2 binding to FGFR1c with heparin ([3]; listed as heparin): significantly increased; also recorded: increased FGF2 binding
